Laboratory results taken from ChEMBL document CHEMBL1143269, “2-(6-Phenyl-1H-indazol-3-yl)-1H-benzo[d]imidazoles: design and synthesis of a potent and isoform selective PKC-zeta inhibitor” (Bioorg Med Chem Lett, 2009).
Blank lines part the entries; values can stand above or below the compound they belong to.

How the values were obtained:
[1] = target: Cyclin-dependent kinase 2 (Homo sapiens, UniProt P24941); assay: Inhibition of human CDK2
[2] = target: T1, Protein kinase C zeta type (Homo sapiens, UniProt Q05513); assay: Inhibition of human PKCzeta
T1 sequence (Q05513 whole entry): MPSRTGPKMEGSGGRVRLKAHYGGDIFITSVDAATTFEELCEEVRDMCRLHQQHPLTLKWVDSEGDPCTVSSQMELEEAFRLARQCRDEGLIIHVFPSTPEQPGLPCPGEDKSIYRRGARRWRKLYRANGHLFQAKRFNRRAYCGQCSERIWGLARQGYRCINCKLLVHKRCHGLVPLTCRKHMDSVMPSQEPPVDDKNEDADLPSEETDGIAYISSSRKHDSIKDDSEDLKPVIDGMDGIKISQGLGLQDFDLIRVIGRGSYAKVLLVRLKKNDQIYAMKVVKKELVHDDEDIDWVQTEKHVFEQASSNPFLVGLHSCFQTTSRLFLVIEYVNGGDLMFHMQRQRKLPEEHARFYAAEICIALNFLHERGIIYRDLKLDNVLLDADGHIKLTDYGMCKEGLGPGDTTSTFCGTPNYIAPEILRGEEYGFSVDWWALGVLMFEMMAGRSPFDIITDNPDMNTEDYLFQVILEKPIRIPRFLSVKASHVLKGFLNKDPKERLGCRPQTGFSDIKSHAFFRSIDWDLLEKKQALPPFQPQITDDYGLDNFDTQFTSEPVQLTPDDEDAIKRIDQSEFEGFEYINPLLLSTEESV

Homo sapiens = organism: Homo sapiens; assay: Selectivity ratio of IC50 for human CDK2 to IC50 for human PKCzeta
[3] = Inhibition of GSK3
[4] = target: ALK tyrosine kinase receptor (Homo sapiens) (UniProt Q9UM73); assay: Inhibition of ALK at 10 uM
[5] = target: Ephrin type-B receptor 4 (Homo sapiens) (UniProt P54760); assay: Inhibition of EphB4 at 10 uM
Ephrin type-B receptor 4 (Homo sapiens), sequence (P54760 whole entry): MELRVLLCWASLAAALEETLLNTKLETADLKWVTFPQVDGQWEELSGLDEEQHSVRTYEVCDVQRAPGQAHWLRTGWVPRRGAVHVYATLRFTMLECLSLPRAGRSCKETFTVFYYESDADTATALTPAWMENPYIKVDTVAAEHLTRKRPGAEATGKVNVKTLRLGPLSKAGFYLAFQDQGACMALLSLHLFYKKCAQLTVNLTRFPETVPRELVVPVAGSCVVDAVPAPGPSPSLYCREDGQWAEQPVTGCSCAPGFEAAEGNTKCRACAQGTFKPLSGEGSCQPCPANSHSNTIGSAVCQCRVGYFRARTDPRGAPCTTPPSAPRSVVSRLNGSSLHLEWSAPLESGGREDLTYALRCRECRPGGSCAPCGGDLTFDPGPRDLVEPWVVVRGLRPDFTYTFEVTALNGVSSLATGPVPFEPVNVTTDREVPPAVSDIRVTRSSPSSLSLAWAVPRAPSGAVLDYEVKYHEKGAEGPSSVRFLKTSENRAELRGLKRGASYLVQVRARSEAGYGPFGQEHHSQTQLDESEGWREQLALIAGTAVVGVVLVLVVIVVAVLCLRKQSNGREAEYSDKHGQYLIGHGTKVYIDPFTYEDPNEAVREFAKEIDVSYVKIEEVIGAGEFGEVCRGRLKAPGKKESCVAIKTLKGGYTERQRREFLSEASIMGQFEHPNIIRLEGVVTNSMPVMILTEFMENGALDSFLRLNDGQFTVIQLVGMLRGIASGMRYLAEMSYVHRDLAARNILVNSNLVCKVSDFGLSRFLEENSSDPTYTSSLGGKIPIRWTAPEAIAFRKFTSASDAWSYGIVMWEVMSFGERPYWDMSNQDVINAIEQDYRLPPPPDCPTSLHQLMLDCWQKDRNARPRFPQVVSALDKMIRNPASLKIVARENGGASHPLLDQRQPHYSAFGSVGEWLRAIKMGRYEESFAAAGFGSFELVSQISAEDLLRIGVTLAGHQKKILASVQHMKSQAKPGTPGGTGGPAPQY

[6] = target: Insulin receptor (Homo sapiens) (UniProt P06213); assay: Inhibition of insulin receptor at 10 uM
[7] = target: Glycogen synthase kinase-3 beta (Homo sapiens) (UniProt P49841); assay: Inhibition of GSK3-beta at 10 uM
[8] = target: RAC-gamma serine/threonine-protein kinase (Homo sapiens) (UniProt Q9Y243); assay: Inhibition of PKB gamma at 10 uM
[9] = Inhibition of PKA at 10 uM
[10] = target: RAC-alpha serine/threonine-protein kinase (Homo sapiens) (UniProt P31749); assay: Inhibition of PKB alpha at 10 uM
RAC-alpha serine/threonine-protein kinase (Homo sapiens), sequence (P31749 whole entry): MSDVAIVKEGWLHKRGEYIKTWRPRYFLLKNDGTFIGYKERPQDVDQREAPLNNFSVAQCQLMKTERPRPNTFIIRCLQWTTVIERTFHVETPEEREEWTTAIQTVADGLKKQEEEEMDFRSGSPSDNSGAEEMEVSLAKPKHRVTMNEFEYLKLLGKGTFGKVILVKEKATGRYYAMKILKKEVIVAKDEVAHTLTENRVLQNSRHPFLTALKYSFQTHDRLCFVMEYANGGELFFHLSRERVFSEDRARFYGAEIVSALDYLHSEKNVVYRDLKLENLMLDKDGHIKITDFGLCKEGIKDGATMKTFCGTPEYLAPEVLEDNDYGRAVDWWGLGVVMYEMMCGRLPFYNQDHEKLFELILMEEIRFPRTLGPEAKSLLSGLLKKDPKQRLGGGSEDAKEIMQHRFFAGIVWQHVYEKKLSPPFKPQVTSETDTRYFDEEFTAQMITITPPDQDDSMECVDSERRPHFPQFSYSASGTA

[11] = target: Serine/threonine-protein kinase Chk1 (Homo sapiens) (UniProt O14757); assay: Inhibition of CHK1 at 10 uM
[12] = target: Insulin-like growth factor 1 receptor (Homo sapiens) (UniProt P08069); assay: Inhibition of IGF1R at 10 uM
[13] = target: 3-phosphoinositide-dependent protein kinase 1 (Homo sapiens) (UniProt O15530); assay: Inhibition of PDK1 at 10 uM
3-phosphoinositide-dependent protein kinase 1 (Homo sapiens), sequence (O15530 whole entry, looked up): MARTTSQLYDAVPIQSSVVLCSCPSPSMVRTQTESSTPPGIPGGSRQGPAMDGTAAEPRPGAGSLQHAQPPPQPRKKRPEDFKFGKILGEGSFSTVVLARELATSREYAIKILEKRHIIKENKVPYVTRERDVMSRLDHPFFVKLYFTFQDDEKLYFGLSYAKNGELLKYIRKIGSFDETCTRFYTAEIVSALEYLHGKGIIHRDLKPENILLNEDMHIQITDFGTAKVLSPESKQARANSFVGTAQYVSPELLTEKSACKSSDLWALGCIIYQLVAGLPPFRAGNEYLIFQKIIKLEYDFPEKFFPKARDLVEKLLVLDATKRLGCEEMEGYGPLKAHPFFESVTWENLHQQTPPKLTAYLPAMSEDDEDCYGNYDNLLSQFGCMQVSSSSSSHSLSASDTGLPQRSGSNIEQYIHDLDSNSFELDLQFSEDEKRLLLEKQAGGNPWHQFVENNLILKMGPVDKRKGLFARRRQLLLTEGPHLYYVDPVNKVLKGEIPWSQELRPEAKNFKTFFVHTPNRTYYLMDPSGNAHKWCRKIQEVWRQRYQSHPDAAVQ

[14] = target: Tyrosine-protein kinase Lck (Homo sapiens) (UniProt P06239); assay: Inhibition of Lck at 10 uM
[15] = target: Ribosomal protein S6 kinase beta-1 (Homo sapiens) (UniProt P23443); assay: Inhibition of P70S6K at 10 uM
[16] = target: Calcium/calmodulin-dependent protein kinase type IV (Homo sapiens) (UniProt Q16566); assay: Inhibition of CAMK4 at 10 uM
[17] = target: Epidermal growth factor receptor (Homo sapiens) (UniProt P00533); assay: Inhibition of EGFR at 10 uM
[18] = target: Casein kinase I isoform delta (Rattus norvegicus) (UniProt Q06486); assay: Inhibition of rat CK1delta at 10 uM
Casein kinase I isoform delta (Rattus norvegicus), sequence (Q06486 whole entry, looked up, canonical isoform): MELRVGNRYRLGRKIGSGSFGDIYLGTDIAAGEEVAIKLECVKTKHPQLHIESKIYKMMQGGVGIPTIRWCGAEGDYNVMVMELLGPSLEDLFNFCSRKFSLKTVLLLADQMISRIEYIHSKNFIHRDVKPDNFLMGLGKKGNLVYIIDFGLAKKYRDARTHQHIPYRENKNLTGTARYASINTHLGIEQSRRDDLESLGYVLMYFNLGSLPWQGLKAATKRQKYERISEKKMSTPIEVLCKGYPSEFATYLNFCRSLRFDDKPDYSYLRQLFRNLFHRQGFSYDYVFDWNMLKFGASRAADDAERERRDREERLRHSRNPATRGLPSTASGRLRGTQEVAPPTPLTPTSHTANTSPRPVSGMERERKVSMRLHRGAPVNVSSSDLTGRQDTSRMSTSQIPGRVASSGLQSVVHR

[19] = target: Tyrosine-protein kinase receptor UFO (Homo sapiens) (UniProt P30530); assay: Inhibition of Axl at 10 uM
[20] = target: Angiopoietin-1 receptor (Homo sapiens) (UniProt Q02763); assay: Inhibition of Tie2 at 10 uM
[21] = target: Tyrosine-protein kinase ZAP-70 (Homo sapiens) (UniProt P43403); assay: Inhibition of Zap70 at 10 uM
[22] = target: BDNF/NT-3 growth factors receptor (Homo sapiens) (UniProt Q16620); assay: Inhibition of TrkB at 10 uM
BDNF/NT-3 growth factors receptor (Homo sapiens), sequence (Q16620 32-822 limits assumed): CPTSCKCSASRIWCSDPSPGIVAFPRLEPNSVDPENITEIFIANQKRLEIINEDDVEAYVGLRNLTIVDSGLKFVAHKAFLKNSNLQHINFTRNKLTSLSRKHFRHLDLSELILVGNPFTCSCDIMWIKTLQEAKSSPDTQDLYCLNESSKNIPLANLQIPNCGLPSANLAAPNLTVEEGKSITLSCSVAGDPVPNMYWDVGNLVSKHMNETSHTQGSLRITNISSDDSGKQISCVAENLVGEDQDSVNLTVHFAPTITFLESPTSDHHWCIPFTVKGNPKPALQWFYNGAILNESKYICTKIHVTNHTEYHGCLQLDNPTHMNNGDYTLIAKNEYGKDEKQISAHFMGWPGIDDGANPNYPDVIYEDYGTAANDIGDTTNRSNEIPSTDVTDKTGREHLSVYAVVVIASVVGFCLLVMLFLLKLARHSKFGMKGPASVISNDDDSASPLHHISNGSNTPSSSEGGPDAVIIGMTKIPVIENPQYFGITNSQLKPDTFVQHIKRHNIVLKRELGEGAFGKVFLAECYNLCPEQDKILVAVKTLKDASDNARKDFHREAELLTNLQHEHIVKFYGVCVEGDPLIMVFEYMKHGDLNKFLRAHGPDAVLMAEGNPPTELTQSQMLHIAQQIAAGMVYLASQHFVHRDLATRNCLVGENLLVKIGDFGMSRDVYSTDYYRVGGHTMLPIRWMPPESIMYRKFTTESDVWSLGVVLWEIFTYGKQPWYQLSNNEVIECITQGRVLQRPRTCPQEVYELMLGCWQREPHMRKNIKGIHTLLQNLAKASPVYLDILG

[23] = target: Tyrosine-protein kinase Fes/Fps (Homo sapiens) (UniProt P07332); assay: Inhibition of Fes at 10 uM
[24] = Inhibition of rat CAMK2 at 10 uM
[25] = Inhibition of CK2 at 10 uM
[26] = target: Tyrosine-protein kinase ABL1 (Homo sapiens) (UniProt P00519); assay: Inhibition of Abl at 10 uM
[27] = target: Proto-oncogene tyrosine-protein kinase Src (Homo sapiens) (UniProt P12931); assay: Inhibition of Src at 10 uM
[28] = target: Cytoplasmic tyrosine-protein kinase BMX (Homo sapiens) (UniProt P51813); assay: Inhibition of Bmx at 10 uM
[29] = target: Rho-associated protein kinase 2 (Homo sapiens) (UniProt O75116); assay: Inhibition of Rock2 at 10 uM
Mus musculus = organism: Mus musculus; assay: Inhibition of mouse MKK4 at 10 uM
[30] = target: Platelet-derived growth factor receptor beta (Homo sapiens) (UniProt P09619); assay: Inhibition of PDGFRbeta at 10 uM
Platelet-derived growth factor receptor beta (Homo sapiens), sequence (P09619 whole entry): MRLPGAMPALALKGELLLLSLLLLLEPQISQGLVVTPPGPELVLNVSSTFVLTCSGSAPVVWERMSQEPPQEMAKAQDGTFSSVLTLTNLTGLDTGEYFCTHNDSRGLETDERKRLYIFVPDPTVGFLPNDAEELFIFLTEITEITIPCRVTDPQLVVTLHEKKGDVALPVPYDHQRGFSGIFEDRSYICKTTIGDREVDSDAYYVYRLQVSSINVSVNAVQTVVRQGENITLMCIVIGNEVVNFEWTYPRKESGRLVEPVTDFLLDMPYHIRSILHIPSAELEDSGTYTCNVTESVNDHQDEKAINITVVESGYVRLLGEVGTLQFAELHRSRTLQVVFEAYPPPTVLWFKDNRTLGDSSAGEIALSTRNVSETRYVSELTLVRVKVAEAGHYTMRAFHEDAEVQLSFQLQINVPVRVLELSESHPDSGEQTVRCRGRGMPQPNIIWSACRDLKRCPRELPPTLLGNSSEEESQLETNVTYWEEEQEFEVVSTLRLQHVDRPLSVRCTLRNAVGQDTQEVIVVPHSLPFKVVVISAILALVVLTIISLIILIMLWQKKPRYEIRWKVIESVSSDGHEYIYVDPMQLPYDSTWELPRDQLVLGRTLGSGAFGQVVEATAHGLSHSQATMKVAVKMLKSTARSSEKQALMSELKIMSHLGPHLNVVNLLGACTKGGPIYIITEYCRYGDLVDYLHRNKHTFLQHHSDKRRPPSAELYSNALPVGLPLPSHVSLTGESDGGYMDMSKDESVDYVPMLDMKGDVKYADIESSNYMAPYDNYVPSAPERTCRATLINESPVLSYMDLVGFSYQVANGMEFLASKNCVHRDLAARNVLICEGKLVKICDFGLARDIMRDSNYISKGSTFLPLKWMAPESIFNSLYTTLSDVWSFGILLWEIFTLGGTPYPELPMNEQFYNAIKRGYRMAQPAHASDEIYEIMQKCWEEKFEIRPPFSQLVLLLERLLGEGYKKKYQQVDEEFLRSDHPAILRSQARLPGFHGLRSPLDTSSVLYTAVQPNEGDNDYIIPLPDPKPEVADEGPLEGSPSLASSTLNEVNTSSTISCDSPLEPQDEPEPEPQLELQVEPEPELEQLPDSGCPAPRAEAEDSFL

[31] = target: Receptor-type tyrosine-protein kinase FLT3 (Homo sapiens) (UniProt P36888); assay: Inhibition of Flt3 at 10 uM
[32] = target: RAF proto-oncogene serine/threonine-protein kinase (Homo sapiens) (UniProt P04049); assay: Inhibition of c-Raf at 10 uM
[33] = target: Proto-oncogene tyrosine-protein kinase receptor Ret (Homo sapiens) (UniProt P07949); assay: Inhibition of Ret at 10 uM
[34] = target: Tyrosine-protein kinase CSK (Homo sapiens) (UniProt P41240); assay: Inhibition of CSK at 10 uM
Tyrosine-protein kinase CSK (Homo sapiens), sequence (P41240 2-450 limits assumed): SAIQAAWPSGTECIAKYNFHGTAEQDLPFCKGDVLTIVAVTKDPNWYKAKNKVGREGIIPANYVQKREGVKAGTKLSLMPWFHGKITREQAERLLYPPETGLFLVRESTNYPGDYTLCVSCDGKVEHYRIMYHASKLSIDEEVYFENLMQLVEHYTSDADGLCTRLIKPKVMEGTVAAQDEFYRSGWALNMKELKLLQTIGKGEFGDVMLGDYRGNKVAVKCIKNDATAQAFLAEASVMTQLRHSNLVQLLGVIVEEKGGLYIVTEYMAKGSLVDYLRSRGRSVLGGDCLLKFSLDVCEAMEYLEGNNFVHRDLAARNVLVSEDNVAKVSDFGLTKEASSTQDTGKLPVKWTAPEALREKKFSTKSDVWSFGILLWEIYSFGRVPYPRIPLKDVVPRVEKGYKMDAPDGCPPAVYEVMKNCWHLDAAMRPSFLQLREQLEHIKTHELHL

[35] = target: Aurora kinase A (Homo sapiens) (UniProt O14965); assay: Inhibition of Aurora A at 10 uM
[36] = target: Tyrosine-protein kinase Fyn (Homo sapiens) (UniProt P06241); assay: Inhibition of Fyn at 10 uM
[37] = target: RAC-beta serine/threonine-protein kinase (Homo sapiens) (UniProt P31751); assay: Inhibition of PKB beta at 10 uM
[38] = target: Dual specificity mitogen-activated protein kinase kinase 1 (Homo sapiens) (UniProt Q02750); assay: Inhibition of MEK1 at 10 uM
[39] = target: Tyrosine-protein kinase SYK (Homo sapiens) (UniProt P43405); assay: Inhibition of Syk at 10 uM

IC50 [1]: 10 µM
IC50 [2]: 5.52 µM
Ratio IC50 (Homo sapiens): 1.8
SMILES: COc1ccccc1-c1ccc2c(-c3nc4c(N5CCN(C)CC5)cccc4[nH]3)n[nH]c2c1

IC50 [1]: 1.73 µM
SMILES: CN1CCN(c2cccc3[nH]c(-c4n[nH]c5cc(-c6ccc(N)c(F)c6)ccc45)nc23)CC1

IC50 [1]: 0.0041 µM
IC50 [2]: 0.00226 µM
Ratio IC50 (Homo sapiens): 1.8
SMILES: COc1cc(-c2ccc3c(-c4nc5c(N6CCN(C)CC6)cccc5[nH]4)n[nH]c3c2)ccc1O

IC50 [1]: 10 µM
SMILES: CN1CCN(c2cccc3[nH]c(-c4n[nH]c5cc(-c6ccc(CN)cc6)ccc45)nc23)CC1

IC50 [3]: 0.0008 µM
IC50 [1]: 0.005 µM
SMILES: O=C(NC1CC1)c1n[nH]c2cc(-c3ccc(O)cc3)c(Br)cc12

IC50 [1]: 10 µM
IC50 [2]: 8.8 µM
Ratio IC50 (Homo sapiens): 1.1
SMILES: CC(=O)Nc1ccc(-c2ccc3c(-c4nc5c(N6CCN(C)CC6)cccc5[nH]4)n[nH]c3c2)cc1

IC50 [1]: 0.247 µM
SMILES: COc1cc(-c2ccc3c(-c4nc5c(N6CCN(C)CC6)cccc5[nH]4)n[nH]c3c2)ccc1N

IC50 [1]: 10 µM
SMILES: CN1CCN(c2cccc3[nH]c(-c4n[nH]c5cc(-c6ccc(C(=O)O)cc6)ccc45)nc23)CC1

inhibition [4]: < 50%
inhibition [5]: < 50%
inhibition [6]: < 50%
inhibition [7]: < 50%
inhibition [8]: < 50%
inhibition [9]: < 50%
inhibition [10]: < 50%
inhibition [11]: < 50%
inhibition [12]: < 50%
inhibition [13]: < 50%
inhibition [14]: < 50%
inhibition [15]: < 50%
inhibition [16]: < 50%
inhibition [17]: < 50%
inhibition [18]: < 50%
inhibition [19]: < 50%
inhibition [20]: < 50%
inhibition [21]: < 50%
inhibition [22]: < 50%
inhibition [23]: < 50%
inhibition [24]: < 50%
inhibition [25]: < 50%
inhibition [26]: < 50%
inhibition [27]: < 50%
inhibition [28]: < 50%
inhibition [29]: < 50%
inhibition (Mus musculus): < 50%
inhibition [30]: < 50%
inhibition [31]: < 50%
inhibition [32]: < 50%
inhibition [33]: < 50%
inhibition [34]: < 50%
inhibition [35]: < 50%
inhibition [36]: < 50%
inhibition [37]: < 50%
inhibition [38]: < 50%
inhibition [39]: < 50%
SMILES: CN1CCN(c2cccc3nc(-c4n[nH]c5cc(-c6ccc(N)cc6)ccc45)[nH]c23)CC1

IC50 [1]: 0.0133 µM
SMILES: CN1CCN(c2cccc3[nH]c(-c4n[nH]c5cc(-c6ccc(O)cc6)ccc45)nc23)CC1

IC50 [2]: 1.07 µM
SMILES: CN1CCN(c2cccc3[nH]c(-c4n[nH]c5cc(-c6ccc7c[nH]nc7c6)ccc45)nc23)CC1

Further lines, the compound ahead of its results:

SMILES: CC(=O)c1ccc(-c2ccc3c(-c4nc5c(N6CCN(C)CC6)cccc5[nH]4)n[nH]c3c2)cc1
IC50 [1]: 10 µM

SMILES: CN1CCN(c2cccc3[nH]c(-c4n[nH]c5cc(-c6ccc(CO)cc6)ccc45)nc23)CC1
IC50 [1]: 21.5 µM

SMILES: CN1CCN(c2cccc3[nH]c(-c4n[nH]c5cc(-c6ccc(S(N)(=O)=O)cc6)ccc45)nc23)CC1
IC50 [2]: 8.93 µM

SMILES: CNc1ccc(-c2ccc3c(-c4nc5c(N6CCN(C)CC6)cccc5[nH]4)n[nH]c3c2)cc1
IC50 [1]: 109 µM

SMILES: CN1CCN(c2cccc3[nH]c(-c4n[nH]c5cc(-c6ccc(N(C)C)cc6)ccc45)nc23)CC1
IC50 [2]: 1.31 µM

SMILES: CN1CCN(c2cccc3[nH]c(-c4n[nH]c5cc(-c6ccc7[nH]ccc7c6)ccc45)nc23)CC1
IC50 [1]: 10 µM
IC50 [2]: 4.08 µM
Ratio IC50 (Homo sapiens): 2.5

SMILES: COc1ccc(-c2ccc3c(-c4nc5c(N6CCN(C)CC6)cccc5[nH]4)n[nH]c3c2)c(OC)c1
IC50 [1]: 10 µM

SMILES: COc1cc(F)ccc1-c1ccc2c(-c3nc4c(N5CCN(C)CC5)cccc4[nH]3)n[nH]c2c1
IC50 [1]: 10 µM
IC50 [2]: 19 µM
Ratio IC50 (Homo sapiens): 0.5

SMILES: COc1cc(O)ccc1-c1ccc2c(-c3nc4c(N5CCN(C)CC5)cccc4[nH]3)n[nH]c2c1
inhibition [4]: < 50%
inhibition [5]: < 50%
inhibition [6]: < 50%
inhibition [7]: < 50%
inhibition [8]: < 50%
inhibition [9]: < 50%
inhibition [10]: < 50%
inhibition [11]: < 50%
inhibition [12]: < 50%
inhibition [13]: < 50%
inhibition [14]: < 50%
inhibition [15]: < 50%
inhibition [16]: < 50%
inhibition [17]: < 50%
inhibition [18]: < 50%
inhibition [19]: < 50%
inhibition [20]: < 50%
inhibition [21]: < 50%
inhibition [22]: < 50%
inhibition [23]: < 50%
inhibition [24]: < 50%
inhibition [25]: < 50%
inhibition [26]: < 50%
inhibition [27]: < 50%
inhibition [28]: < 50%
inhibition [29]: < 50%
IC50 [1]: 0.102 µM
inhibition (Mus musculus): < 50%
inhibition [30]: < 50%
inhibition [31]: < 50%
inhibition [32]: < 50%
inhibition [33]: < 50%
inhibition [34]: < 50%
inhibition [35]: < 50%
inhibition [36]: < 50%
inhibition [37]: < 50%
inhibition [38]: < 50%
inhibition [39]: < 50%

SMILES: CN1CCN(c2cccc3[nH]c(-c4n[nH]c5cc(-c6cccc(N)c6)ccc45)nc23)CC1
IC50 [1]: 6.1 µM
IC50 [2]: 1.51 µM
Ratio IC50 (Homo sapiens): 4
